Results from ChEMBL document CHEMBL3044712, “Herbicidal potential of pseudoguaninolide sesquiterpenes on wild oat, Avena fatua L” (Biochem Syst Ecol, 2012).

Assays:
[1] = tested on: Avena fatua; assay: Phytotoxicity against Avena fatua assessed as seed germination at 0.5 mM measured after 10 days sowing (reference value: 50 +/- 2.89%); assay type: functional
[2] = tested on: Avena fatua; assay: Phytotoxicity against Avena fatua assessed as inhibition of shoot growth as shoot length at 0.125 mM (reference value: 11.2 +/- 0.35%); assay type: functional; conditions: read-out: GI
[3] = tested on: Avena fatua; assay: Phytotoxicity against Avena fatua assessed as inhibition of shoot growth as shoot length at 0.5 mM (reference value: 11.2 +/- 0.35%); assay type: functional; conditions: read-out: GI
[4] = tested on: Avena fatua; assay: Phytotoxicity against Avena fatua assessed as inhibition of root growth as root length at 1 mM (reference value: 9.6 +/- 0.36%); assay type: functional; conditions: read-out: GI
[5] = tested on: Avena fatua; assay: Phytotoxicity against Avena fatua assessed as seed germination at 0.25 mM measured after 10 days sowing (reference value: 50 +/- 2.89%); assay type: functional
[6] = tested on: Avena fatua; assay: Phytotoxicity against Avena fatua assessed as inhibition of root growth as root length at 0.125 mM (reference value: 9.6 +/- 0.36%); assay type: functional; conditions: read-out: GI
[7] = tested on: Avena fatua; assay: Phytotoxicity against Avena fatua assessed as inhibition of root growth as root length at 0.25 mM measured after 10 days sowing (reference value: 9.6 +/- 0.36%); assay type: functional; conditions: 240 h, read-out: GI
[8] = tested on: Avena fatua; assay: Phytotoxicity against Avena fatua assessed as inhibition of root growth as root length at 2 mM (reference value: 9.6 +/- 0.36%); assay type: functional; conditions: read-out: GI
[9] = tested on: Avena fatua; assay: Phytotoxicity against Avena fatua assessed as inhibition of shoot growth as shoot length at 0.25 mM (reference value: 11.2 +/- 0.35%); assay type: functional; conditions: read-out: GI
[10] = tested on: Avena fatua; assay: Phytotoxicity against Avena fatua assessed as inhibition of root growth as root length at 0.5 mM (reference value: 9.6 +/- 0.36%); assay type: functional; conditions: read-out: GI
[11] = tested on: Avena fatua; assay: Phytotoxicity against Avena fatua assessed as seed germination at 1 mM measured after 10 days sowing (reference value: 50 +/- 2.89%); assay type: functional
[12] = tested on: Avena fatua; assay: Phytotoxicity against Avena fatua assessed as inhibition of shoot growth as shoot length at 2 mM (reference value: 11.2 +/- 0.35%); assay type: functional; conditions: read-out: GI
[13] = tested on: Avena fatua; assay: Phytotoxicity against Avena fatua assessed as inhibition of shoot growth as shoot length; assay type: functional, organism-based
[14] = tested on: Avena fatua; assay: Phytotoxicity against Avena fatua assessed as inhibition of shoot growth as shoot length at 1 mM (reference value: 11.2 +/- 0.35%); assay type: functional; conditions: read-out: GI
[15] = tested on: Avena fatua; assay: Phytotoxicity against Avena fatua assessed as seed germination at 0.125 mM measured after 10 days sowing (reference value: 50 +/- 2.89%); assay type: functional
[16] = tested on: Avena fatua; assay: Phytotoxicity against Avena fatua assessed as seed germination at 2 mM measured after 10 days sowing (reference value: 50 +/- 2.89%); assay type: functional
[17] = tested on: Avena fatua; assay: Phytotoxicity against Avena fatua assessed as inhibition of root growth as root length; assay type: functional, organism-based

For `C=C1C(=O)O[C@@H]2[C@H]1CC[C@H](C)[C@@H]1C=CC(=O)[C@@]21C` [AMBROSIN], which Activity [1] is on record?
The Activity was 28.3%.

And the inhibition of growth at 125 µM [2]?
The inhibition of growth at 125 µM was 19.6%.

What about the inhibition of growth at 500 µM [3] of the same compound?
The inhibition of growth at 500 µM was 74.1%.

What about the inhibition of growth at 1000 µM [4] of the same compound?
The inhibition of growth at 1000 µM was 92.4%.

What about the Activity [5] of the same compound?
The Activity was 36.7%.

What about the inhibition of growth at 125 µM [6] of the same compound?
Its inhibition of growth at 125 µM is 22.9%.

And the inhibition of growth at 250 µM [7]?
The inhibition of growth at 250 µM was 57.3%.

And the inhibition of growth at 2000 µM [8]?
Its inhibition of growth at 2000 µM is 99%.

What about the inhibition of growth at 250 µM [9] of the same compound?
The inhibition of growth at 250 µM was 51.8%.

What about the inhibition of growth at 500 µM [10] of the same compound?
Its inhibition of growth at 500 µM is 85.4%.

And the Activity [11]?
Its Activity is 26.7%.

What about the inhibition of growth at 2000 µM [12] of the same compound?
The inhibition of growth at 2000 µM was 86.6%.

What about the EC50 [13] of the same compound?
Its EC50 is 300 µM.

And the inhibition of growth at 1000 µM [14]?
The inhibition of growth at 1000 µM was 75.9%.

What about the Activity [15] of the same compound?
Its Activity is 50%.

And the Activity [16]?
Its Activity is 26.7%.

And the EC50 [17]?
The EC50 was 220 µM.

With `C=C(C(=O)O)[C@@H]1CC[C@H](C)[C@@H]2CCC(=O)[C@@]2(C)C1` [DAMCINIC ACID] as the compound, how does the Activity [1] read?
Its Activity is 38.3%.

And the inhibition of growth at 125 µM [2]?
The inhibition of growth at 125 µM was 3.6%.

What about the inhibition of growth at 500 µM [3] of the same compound?
Its inhibition of growth at 500 µM is 29.5%.

What about the inhibition of growth at 1000 µM [4] of the same compound?
The inhibition of growth at 1000 µM was 64.6%.

And the Activity [5]?
The Activity was 40%.

And the inhibition of growth at 125 µM [6]?
The inhibition of growth at 125 µM was 4.2%.

What about the inhibition of growth at 250 µM [7] of the same compound?
The inhibition of growth at 250 µM was 31.3%.

And the inhibition of growth at 2000 µM [8]?
Its inhibition of growth at 2000 µM is 79.2%.

And the inhibition of growth at 250 µM [9]?
The inhibition of growth at 250 µM was 6.3%.

What about the inhibition of growth at 500 µM [10] of the same compound?
Its inhibition of growth at 500 µM is 50%.

What about the Activity [11] of the same compound?
Its Activity is 38.3%.

What about the inhibition of growth at 2000 µM [12] of the same compound?
Its inhibition of growth at 2000 µM is 70.5%.

And the EC50 [13]?
Its EC50 is 1090 µM.

What about the inhibition of growth at 1000 µM [14] of the same compound?
The inhibition of growth at 1000 µM was 44.6%.

What about the Activity [15] of the same compound?
Its Activity is 41.7%.

And the Activity [16]?
Its Activity is 28.3%.

And the EC50 [17]?
Its EC50 is 600 µM.

Which results are given for `C=C1C(=O)O[C@@H]2[C@H]1CC[C@H](C)[C@@H]1CCC(=O)[C@@]21C` [DAMSIN]?
Activity [1]: 30%; inhibition of growth at 125 µM [2]: 1.8%; inhibition of growth at 500 µM [3]: 22.3%; inhibition of growth at 1000 µM [4]: 92.4%; Activity [5]: 35%; inhibition of growth at 125 µM [6]: 30.2%; inhibition of growth at 250 µM [7]: 55.2%; inhibition of growth at 2000 µM [8]: 98.2%; inhibition of growth at 250 µM [9]: 5.4%; inhibition of growth at 500 µM [10]: 65.6%; Activity [11]: 26.7%; inhibition of growth at 2000 µM [12]: 83.9%; EC50 [13]: 830 µM; inhibition of growth at 1000 µM [14]: 66.1%; Activity [15]: 46.7%; Activity [16]: 16.7%; EC50 [17]: 240 µM

`C=C1C(=O)O[C@@H]2[C@H]1CC[C@H](C)[C@@]1(O)C=CC(=O)[C@@]21C` [HYMENIN] was tested. Which Activity [1] did it give?
Its Activity is 33.3%.

What about the inhibition of growth at 125 µM [2] of the same compound?
Its inhibition of growth at 125 µM is 10.7%.

What about the inhibition of growth at 500 µM [3] of the same compound?
Its inhibition of growth at 500 µM is 39.3%.

What about the inhibition of growth at 1000 µM [4] of the same compound?
The inhibition of growth at 1000 µM was 72.9%.

What about the Activity [5] of the same compound?
The Activity was 36.7%.

What about the inhibition of growth at 125 µM [6] of the same compound?
Its inhibition of growth at 125 µM is 8.3%.

What about the inhibition of growth at 250 µM [7] of the same compound?
Its inhibition of growth at 250 µM is 15.6%.

And the inhibition of growth at 2000 µM [8]?
The inhibition of growth at 2000 µM was 95.6%.

And the inhibition of growth at 250 µM [9]?
The inhibition of growth at 250 µM was 25%.

And the inhibition of growth at 500 µM [10]?
The inhibition of growth at 500 µM was 37.5%.

And the Activity [11]?
Its Activity is 30%.

What about the inhibition of growth at 2000 µM [12] of the same compound?
The inhibition of growth at 2000 µM was 80.4%.

And the EC50 [13]?
The EC50 was 670 µM.

What about the inhibition of growth at 1000 µM [14] of the same compound?
Its inhibition of growth at 1000 µM is 60.7%.

And the Activity [15]?
Its Activity is 38.3%.

What about the Activity [16] of the same compound?
Its Activity is 30%.

And the EC50 [17]?
The EC50 was 570 µM.

`C=C1C(=O)O[C@@H]2[C@H]1CC[C@H](C)C1=CCC(=O)[C@]12C` [NEOAMBROSIN] was tested. Which Activity [1] did it give?
The Activity was 36.7%.

And the inhibition of growth at 125 µM [2]?
Its inhibition of growth at 125 µM is 2.7%.

What about the inhibition of growth at 500 µM [3] of the same compound?
The inhibition of growth at 500 µM was 20.5%.

And the inhibition of growth at 1000 µM [4]?
Its inhibition of growth at 1000 µM is 61.5%.

And the Activity [5]?
Its Activity is 40%.

And the inhibition of growth at 125 µM [6]?
Its inhibition of growth at 125 µM is 11.5%.

And the inhibition of growth at 250 µM [7]?
The inhibition of growth at 250 µM was 40.6%.

What about the inhibition of growth at 2000 µM [8] of the same compound?
Its inhibition of growth at 2000 µM is 94.8%.

What about the inhibition of growth at 250 µM [9] of the same compound?
Its inhibition of growth at 250 µM is 10.7%.

What about the inhibition of growth at 500 µM [10] of the same compound?
The inhibition of growth at 500 µM was 45.6%.

What about the Activity [11] of the same compound?
Its Activity is 40%.

And the inhibition of growth at 2000 µM [12]?
The inhibition of growth at 2000 µM was 84.8%.

What about the EC50 [13] of the same compound?
Its EC50 is 960 µM.

And the inhibition of growth at 1000 µM [14]?
Its inhibition of growth at 1000 µM is 43.8%.

And the Activity [15]?
Its Activity is 46.7%.

And the Activity [16]?
The Activity was 23.3%.

And the EC50 [17]?
Its EC50 is 480 µM.
